# Data from US10765114B2, “4-amino-6-(pyridyl and 2-substitutedphenyl)-picolinates and 6-amino-2-(pyridyl and 2-substitutedphenyl)-pyrimidine-4-carboxylates and their use as herbicides” (Dow AgroSciences LLC, priority 2013, dated 2020).
# System: Key Broadleaf Weed and Crop Species
# Assay: Post-Emergent Test II (Table 5)
# Format: in vivo
# Conditions: Abutilon theophrasti, post-emergence, 336 h, ABUTH: velvetleaf (Abutilon theophrasti), application rate 70 (kg ai/ha; footnote: g ai/ha), read-out: Visual Growth Reduction (%) 14 Days After Application ABUTH
# How it was run: (§1)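 Visual injury ratings (0 = no injury, 100 = complete kill) taken 14 days after treatment, relative to untreated controls. Compounds, in an acetone/DMSO aqueous carrier with crop oil and surfactant, were applied by track sprayer at 187 L/ha, in a twofold dilution series from the top rate, to plants at the first to second true-leaf stage.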
row,Structure (SMILES),pest or weed control at 70 g/ha [%]
1,CCc1c(-c2cc(N)c(Cl)c(C(=O)O)n2)ccc(Cl)c1F [Compound 86],45 to 59

# Same assay, conditions: Abutilon theophrasti, post-emergence, 336 h, ABUTH: velvetleaf (Abutilon theophrasti), application rate 140 (kg ai/ha; footnote: g ai/ha), read-out: Visual Growth Reduction (%) 14 Days After Application ABUTH
row,Structure (SMILES),pest or weed control at 140 g/ha [%]
1,CCc1c(-c2cc(N)c(Cl)c(C(=O)O)n2)ccc(Cl)c1F [Compound 86],0 to 29

# Same assay, conditions: Amaranthus retroflexus, post-emergence, 336 h, AMARE: redroot pigweed (Amaranthus retroflexus), application rate 70 (kg ai/ha; footnote: g ai/ha), read-out: Visual Growth Reduction (%) 14 Days After Application AMARE
row,Structure (SMILES),pest or weed control at 70 g/ha [%]
1,CCc1c(-c2cc(N)c(Cl)c(C(=O)O)n2)ccc(Cl)c1F [Compound 86],85 to 94

# Same assay, conditions: Amaranthus retroflexus, post-emergence, 336 h, AMARE: redroot pigweed (Amaranthus retroflexus), application rate 140 (kg ai/ha; footnote: g ai/ha), read-out: Visual Growth Reduction (%) 14 Days After Application AMARE
row,Structure (SMILES),pest or weed control at 140 g/ha [%]
1,CCc1c(-c2cc(N)c(Cl)c(C(=O)O)n2)ccc(Cl)c1F [Compound 86],85 to 94

# Same assay, conditions: Brassica napus, post-emergence, 336 h, BRSSS: oilseed rape, canola (Brassica napus), application rate 70 (kg ai/ha; footnote: g ai/ha), read-out: Visual Growth Reduction (%) 14 Days After Application BRSSS
row,Structure (SMILES),pest or weed control at 70 g/ha [%]
1,CCc1c(-c2cc(N)c(Cl)c(C(=O)O)n2)ccc(Cl)c1F [Compound 86],75 to 84

# Same assay, conditions: Brassica napus, post-emergence, 336 h, BRSSS: oilseed rape, canola (Brassica napus), application rate 140 (kg ai/ha; footnote: g ai/ha), read-out: Visual Growth Reduction (%) 14 Days After Application BRSSS
row,Structure (SMILES),pest or weed control at 140 g/ha [%]
1,CCc1c(-c2cc(N)c(Cl)c(C(=O)O)n2)ccc(Cl)c1F [Compound 86],85 to 94

# Same assay, conditions: Chenopodium album, post-emergence, 336 h, CHEAL: lambsquarters (Chenopodium album), application rate 70 (kg ai/ha; footnote: g ai/ha), read-out: Visual Growth Reduction (%) 14 Days After Application CHEAL
row,Structure (SMILES),pest or weed control at 70 g/ha [%]
1,CCc1c(-c2cc(N)c(Cl)c(C(=O)O)n2)ccc(Cl)c1F [Compound 86],85 to 94

# Same assay, conditions: Chenopodium album, post-emergence, 336 h, CHEAL: lambsquarters (Chenopodium album), application rate 140 (kg ai/ha; footnote: g ai/ha), read-out: Visual Growth Reduction (%) 14 Days After Application CHEAL
row,Structure (SMILES),pest or weed control at 140 g/ha [%]
1,CCc1c(-c2cc(N)c(Cl)c(C(=O)O)n2)ccc(Cl)c1F [Compound 86],85 to 94

# Same assay, conditions: Euphorbia heterophylla, post-emergence, 336 h, EPHHL: wild poinsettia (Euphorbia heterophylla), application rate 70 (kg ai/ha; footnote: g ai/ha), read-out: Visual Growth Reduction (%) 14 Days After Application EPHHL
row,Structure (SMILES),pest or weed control at 70 g/ha [%]
1,CCc1c(-c2cc(N)c(Cl)c(C(=O)O)n2)ccc(Cl)c1F [Compound 86],0 to 29

# Same assay, conditions: Euphorbia heterophylla, post-emergence, 336 h, EPHHL: wild poinsettia (Euphorbia heterophylla), application rate 140 (kg ai/ha; footnote: g ai/ha), read-out: Visual Growth Reduction (%) 14 Days After Application EPHHL
row,Structure (SMILES),pest or weed control at 140 g/ha [%]
1,CCc1c(-c2cc(N)c(Cl)c(C(=O)O)n2)ccc(Cl)c1F [Compound 86],0 to 29

# Same assay, conditions: Helianthus annuus, post-emergence, 336 h, HELAN: sunflower (Helianthus annuus), application rate 70 (kg ai/ha; footnote: g ai/ha), read-out: Visual Growth Reduction (%) 14 Days After Application HELAN
row,Structure (SMILES),pest or weed control at 70 g/ha [%]
1,CCc1c(-c2cc(N)c(Cl)c(C(=O)O)n2)ccc(Cl)c1F [Compound 86],75 to 84

# Same assay, conditions: Helianthus annuus, post-emergence, 336 h, HELAN: sunflower (Helianthus annuus), application rate 140 (kg ai/ha; footnote: g ai/ha), read-out: Visual Growth Reduction (%) 14 Days After Application HELAN
row,Structure (SMILES),pest or weed control at 140 g/ha [%]
1,CCc1c(-c2cc(N)c(Cl)c(C(=O)O)n2)ccc(Cl)c1F [Compound 86],75 to 84

# Same assay, conditions: Viola tricolor, post-emergence, 336 h, VIOTR: wild pansy (Viola tricolor), application rate 70 (kg ai/ha; footnote: g ai/ha), read-out: Visual Growth Reduction (%) 14 Days After Application VIOTR
row,Structure (SMILES),pest or weed control at 70 g/ha [%]
1,CCc1c(-c2cc(N)c(Cl)c(C(=O)O)n2)ccc(Cl)c1F [Compound 86],0 to 29

# Same assay, conditions: Viola tricolor, post-emergence, 336 h, VIOTR: wild pansy (Viola tricolor), application rate 140 (kg ai/ha; footnote: g ai/ha), read-out: Visual Growth Reduction (%) 14 Days After Application VIOTR
row,Structure (SMILES),pest or weed control at 140 g/ha [%]
1,CCc1c(-c2cc(N)c(Cl)c(C(=O)O)n2)ccc(Cl)c1F [Compound 86],0 to 29

# System: Key Grass and Sedge Weeds as well as Grass Crops
# Assay: Post-Emergent Test II (Table 6)
# Format: in vivo
# Conditions: post-emergence, 336 h, CYPSS, 70 g ai/ha, 14 days after application, read-out: Visual Growth Reduction (%) 14 Days After Application CYPSS
# How it was run: as §1
row,Structure (SMILES),pest or weed control at 70 g/ha [%]
1,CCc1c(-c2cc(N)c(Cl)c(C(=O)O)n2)ccc(Cl)c1F [Compound 86],0 to 29
